The values that follow come from patent US9732075B2, “Benzimidazole-proline derivatives” (IDORSIA PHARMACEUTICALS LTD, priority 2012, dated 2017).

In assay [1] the target is human orexin-1 receptor (Homo sapiens (Human), UniProt O43613). Briefly: In vitro assay: intracellular calcium measurements (FLIPR), antagonistic activity. The format is cell-based. The following applies: CHO cells expressing human orexin-1 receptor, orexin-A agonist, geometric mean, read-out: IC50 Ox1. The essentials:
(§1)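 hOX1R/hOX2R CHO cells, fluo-4 AM + 5 mM probenecid, 50 min 37 °C then 30 min RT. Cpd 120 min, then orexin-A 3 nM final; FLIPR peak height vs vehicle. IC50, geometric mean of repeats.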

Assay [2] concerns the target human orexin-2 receptor (Homo sapiens (Human), UniProt O43614). The assay is described as above. Format: cell-based. The following applies: CHO cells expressing human orexin-2 receptor, orexin-A agonist, geometric mean, read-out: IC50 Ox2. The essentials:
as §1

SMILES strings stand for the structures. pIC50: −log10 of the molar value.

Sequence of human orexin-2 receptor (O43614 whole entry): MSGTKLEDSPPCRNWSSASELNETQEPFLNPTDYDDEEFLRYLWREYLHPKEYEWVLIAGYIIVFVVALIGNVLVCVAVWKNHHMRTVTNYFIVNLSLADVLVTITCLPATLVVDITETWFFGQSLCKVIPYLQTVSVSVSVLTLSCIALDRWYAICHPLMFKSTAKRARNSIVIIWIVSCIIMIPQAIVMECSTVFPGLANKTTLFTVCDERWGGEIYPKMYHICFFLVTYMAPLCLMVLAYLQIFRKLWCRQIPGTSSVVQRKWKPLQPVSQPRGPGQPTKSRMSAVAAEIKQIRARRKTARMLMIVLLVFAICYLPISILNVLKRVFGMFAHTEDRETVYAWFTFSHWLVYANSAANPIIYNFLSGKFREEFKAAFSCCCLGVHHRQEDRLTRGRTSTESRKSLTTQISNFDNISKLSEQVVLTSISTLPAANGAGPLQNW
Sequence of human orexin-1 receptor (O43613 whole entry): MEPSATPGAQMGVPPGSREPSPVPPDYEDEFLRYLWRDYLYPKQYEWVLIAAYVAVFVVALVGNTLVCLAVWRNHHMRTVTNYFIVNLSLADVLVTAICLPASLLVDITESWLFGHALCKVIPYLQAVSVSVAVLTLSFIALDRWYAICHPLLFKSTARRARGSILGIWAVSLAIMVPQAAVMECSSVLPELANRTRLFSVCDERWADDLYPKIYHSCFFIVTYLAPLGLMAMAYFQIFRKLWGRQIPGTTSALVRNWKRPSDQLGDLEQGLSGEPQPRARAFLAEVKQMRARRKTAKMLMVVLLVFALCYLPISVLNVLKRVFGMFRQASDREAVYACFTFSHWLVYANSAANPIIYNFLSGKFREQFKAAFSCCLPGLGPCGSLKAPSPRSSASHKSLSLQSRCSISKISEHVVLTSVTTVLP

The pIC50 is the IC50 on a negative log10 scale, so that one unit is a factor of ten. On to `Cc1ccc(-c2cccc(C#N)c2)c(C(=O)N2CCC[C@@]2(C)c2nc3cc(C(F)(F)F)ccc3[nH]2)c1` [Ex. 5.190], for which the pIC50 in assay [1] was 7.24; in assay [2] it was 6.92.

`COc1ccc(-c2ccc(C)cc2C(=O)N2CCC[C@@]2(C)c2nc3cc(C(F)(F)F)ccc3[nH]2)cc1` [Ex. 5.191]: the results for the pIC50 in assay [1] and in assay [2] were 7.74 and 7.16, respectively.

In the case of `Cc1ccc(-c2ccc(C)cc2C(=O)N2CCC[C@@]2(C)c2nc3cc(C(F)(F)F)ccc3[nH]2)cc1` [Ex. 5.192], the pIC50 is 7.64 in assay [1] and 7.06 in assay [2].

With `Cc1ccc(-c2ccc(C#N)cc2)c(C(=O)N2CCC[C@@]2(C)c2nc3cc(C(F)(F)F)ccc3[nH]2)c1` [Ex. 5.193], the pIC50 was 7.62 in assay [1] and 6.69 in assay [2].

`Cc1ccc(-c2ccccc2F)c(C(=O)N2CCC[C@@]2(C)c2nc3cc(C(F)(F)F)ccc3[nH]2)c1` [Ex. 5.194]: the pIC50 was 7.89 in assay [1] and 7.01 in assay [2].

Take `Cc1ccc(-c2cccc(C(F)(F)F)c2)c(C(=O)N2CCC[C@@]2(C)c2nc3cc(C(F)(F)F)ccc3[nH]2)c1` [Ex. 5.195]: the pIC50 in assay [1] was 7.14; in assay [2], 6.99.

As to `Cc1ccc(-c2cccc(C)c2C)c(C(=O)N2CCC[C@@]2(C)c2nc3cc(C(F)(F)F)ccc3[nH]2)c1` [Ex. 5.196], the pIC50 is 7.04 in assay [1] and 6.70 in assay [2].

In the case of `Cc1ccc(-c2ccc(F)cc2)c(C(=O)N2CCC[C@@]2(C)c2nc3cc(C(F)(F)F)ccc3[nH]2)c1` [Ex. 5.197], the pIC50 is 7.74 in assay [1] and 6.78 in assay [2].

As to `Cc1ccc(-c2ccc3c(c2)OCO3)c(C(=O)N2CCC[C@@]2(C)c2nc3cc(C(F)(F)F)ccc3[nH]2)c1` [Ex. 5.198], the pIC50 in assay [1] is 7.74; in assay [2] it was 7.47.

Regarding `Cc1cc(C(=O)N2CCC[C@@]2(C)c2nc3c(F)c(F)ccc3[nH]2)c(-n2nccn2)cc1C` [Ex. 5.199], the pIC50 in assay [1] was 7.92; in assay [2] it was 7.08.

In the case of `C[C@@]1(c2nc3c(F)c(F)ccc3[nH]2)CCCN1C(=O)c1cc(Cl)ccc1-n1nccn1` [Ex. 5.200], the figures for the pIC50 in assay [1] and in assay [2] were 6.94 and 6.29, respectively.

Turning to `Cc1ccc(-n2cccn2)c(C(=O)N2CCC[C@@]2(C)c2nc3c(F)c(F)ccc3[nH]2)c1` [Ex. 5.201], the pIC50 is 6.58 in assay [1] and 6.06 in assay [2].

On to `Cc1ccc(C(=O)N2CCC[C@@]2(C)c2nc3c(F)c(F)ccc3[nH]2)c(-n2nccn2)c1` [Ex. 5.202], for which the results for the pIC50 in assay [1] and in assay [2] were 6.64 and 6.03, respectively.

On to `COc1ccc(-n2nccn2)c(C(=O)N2CCC[C@@]2(C)c2nc3c(F)c(F)ccc3[nH]2)c1F` [Ex. 5.203], for which the pIC50 is 6.71 in assay [1] and 5.86 in assay [2].

In the case of `C[C@@]1(c2nc3c(F)c(F)ccc3[nH]2)CCCN1C(=O)c1cc(F)ccc1-n1nccn1` [Ex. 5.204], the values for the pIC50 in assay [1] and in assay [2] were 6.44 and 6.05, respectively.

`Cc1ccc(-n2nccn2)c(C(=O)N2CCC[C@@]2(C)c2nc3c(F)c(F)ccc3[nH]2)n1` [Ex. 5.205]: the values for the pIC50 in assay [1] and in assay [2] were 6.83 and 6.07, respectively.

As for `Cc1nc(C(=O)N2CCC[C@@]2(C)c2nc3c(F)c(F)ccc3[nH]2)c(-c2ccccc2)s1` [Ex. 5.206], the pIC50 in assay [1] is 7.72; in assay [2] it was 6.93.

In the case of `Cc1nc(C(=O)N2CCC[C@@]2(C)c2nc3c(F)c(F)ccc3[nH]2)c(-c2cccc(Cl)c2)s1` [Ex. 5.207], the pIC50 in assay [1] is 7.82; in assay [2], 7.11.

`Cc1nc(C(=O)N2CCC[C@@]2(C)c2nc3ccc(F)c(F)c3[nH]2)c(-c2ccc(F)cc2)s1` [Ex. 5.208]: the pIC50 in assay [1] was 7.28; in assay [2] it was 6.55.

As for `Cc1ccc(-c2sc(C)nc2C(=O)N2CCC[C@@]2(C)c2nc3c(F)c(F)ccc3[nH]2)cc1` [Ex. 5.209], the pIC50 in assay [1] was 7.77; in assay [2] it was 7.00.

In the case of `Cc1cccc(-c2sc(C)nc2C(=O)N2CCC[C@@]2(C)c2nc3ccc(F)c(F)c3[nH]2)c1` [Ex. 5.210], the figures for the pIC50 in assay [1] and in assay [2] were 8.52 and 7.57, respectively.

Turning to `Cc1nc(C(=O)N2CCC[C@@]2(C)c2nc3c(F)c(F)ccc3[nH]2)c(-c2ccc(Cl)cc2)s1` [Ex. 5.211], the pIC50 was 7.57 in assay [1] and 6.80 in assay [2].

On to `Cc1nc(C(=O)N2CCC[C@@]2(C)c2nc3c(F)c(F)ccc3[nH]2)c(-c2cccc(F)c2)s1` [Ex. 5.212], for which the pIC50 is 7.59 in assay [1] and 6.62 in assay [2].

As for `COc1cccc(-c2sc(C)nc2C(=O)N2CCC[C@@]2(C)c2nc3c(F)c(F)ccc3[nH]2)c1` [Ex. 5.213], the pIC50 in assay [1] was 7.80; in assay [2] it was 7.29.

Regarding `Cc1ccc(-c2ncccn2)c(C(=O)N2CCC[C@@]2(C)c2nc3c(C)c(Cl)ccc3[nH]2)c1` [Ex. 5.214], the pIC50 in assay [1] is 8.70; in assay [2], 8.40.

Consider `Cc1ccc(-c2ccccn2)c(C(=O)N2CCC[C@@]2(C)c2nc3c(C)c(Cl)ccc3[nH]2)c1` [Ex. 5.215], for which the pIC50 in assay [1] was 8.40; in assay [2] it was 7.96.

Turning to `Cc1ccc(-c2cccnc2)c(C(=O)N2CCC[C@@]2(C)c2nc3ccc(Cl)c(C)c3[nH]2)c1` [Ex. 5.216], the pIC50 was 7.82 in assay [1] and 7.35 in assay [2].

As to `Cc1ccc(-c2cccnc2)c(C(=O)N2CCC[C@@]2(C)c2nc3ccc(Cl)c(C)c3[nH]2)c1` [Ex. 5.217], the pIC50 is 7.01 in assay [1] and 6.56 in assay [2].

For the compound `Cc1c(Cl)ccc2[nH]c([C@]3(C)CCCN3C(=O)c3cc(F)ccc3-c3ccccc3)nc12` [Ex. 5.218], the pIC50 in assay [1] was 7.89; in assay [2] it was 7.44.

For `Cc1c(Cl)ccc2nc([C@]3(C)CCCN3C(=O)c3cc(F)ccc3-c3ccccn3)[nH]c12` [Ex. 5.219], the pIC50 in assay [1] is 7.72; in assay [2] it was 7.14.

For `Cc1c(Cl)ccc2nc([C@]3(C)CCCN3C(=O)c3cc(F)ccc3-c3cccnc3)[nH]c12` [Ex. 5.220], the pIC50 in assay [1] was 7.01; in assay [2] it was 6.60.

As to `Cc1c(Cl)ccc2[nH]c([C@]3(C)CCCN3C(=O)c3c(F)cccc3-c3ccccn3)nc12` [Ex. 5.221], the pIC50 in assay [1] is 7.72; in assay [2], 7.08.

As to `Cc1c(Cl)ccc2[nH]c([C@]3(C)CCCN3C(=O)c3c(F)cccc3-c3ncccn3)nc12` [Ex. 5.222], the pIC50 in assay [1] is 7.59; in assay [2], 7.17.

Regarding `Cc1ccc(-c2ccccc2)c(C(=O)N2CCC[C@@]2(C)c2nc3c(C)c(Cl)ccc3[nH]2)c1` [Ex. 5.223], the pIC50 in assay [1] was 8.52; in assay [2], 7.92.

Regarding `Cc1c(Cl)ccc2[nH]c([C@]3(C)CCCN3C(=O)c3cc(F)ccc3-c3ncccn3)nc12` [Ex. 5.224], the pIC50 in assay [1] was 8.15; in assay [2], 7.68.

As to `Cc1c(Cl)ccc2nc([C@]3(C)CCCN3C(=O)c3c(F)cccc3-c3ccccc3)[nH]c12` [Ex. 5.225], the results for the pIC50 in assay [1] and in assay [2] were 7.80 and 7.36, respectively.

Consider `Cc1c(Cl)ccc2nc([C@]3(C)CCCN3C(=O)c3nc(-c4ccccc4)sc3-c3ccc(F)cc3)[nH]c12` [Ex. 5.226], for which the pIC50 in assay [1] was 8.15; in assay [2], 6.81.

As to `Cc1c(Cl)ccc2[nH]c([C@]3(C)CCCN3C(=O)c3nc(-c4ccc(F)cc4)sc3-c3ccc(F)cc3)nc12` [Ex. 5.227], the values for the pIC50 in assay [1] and in assay [2] were 7.70 and 6.28, respectively.
